Measured values published in US4424342A, “Anthracycline antibiotic compounds” (priority 1981, dated 1984).
Converted amounts (≈) assume the structure as drawn. “Also recorded” adds a separate entry of the source. Where two headings read alike, the source gives them in different places.

Columns and labels:
[1] = tested on: L1210 leukemia cells, DNA synthesis; experiment: DNA synthesis inhibition in L1210 leukemia culture cells (14C-thymidine incorporation); assay type: cell-based; conditions: Mus musculus
Description: (§1) The 50% inhibitory concentration of trisarubicinol on L1210 leukemia cells was calculated by culturing 5×10^4 cells/ml at 37° C. in 5% CO2 -air in 20% calf serum-supplemented RPMI 1640 medium (Roswell Park Memorial Institute 1640 medium) containing none (control), 0.01 and 0.05 μg/ml of trisarubicinol. In addition. the inhibitory effect of the new anthracycline compound on nucleic acid synthesis was examined as follows: after 5×10^5 cells/ml of L1210 leukemia cells were preincubated in 5% CO2 -air at 37° C. for 1-2 hours in RPMI medium containing 10% calf serum, varied concentrations of trisarubicinol were added and incubated for 15 minutes under the same conditions. Then 0.05 μCi/ml each of ^14 C-uridine or ^14 C-thymidine was added to the cell suspensions and the mixtures were incubated at 37° C. for a further 60 minutes. At the end of incubation, cold 10% trichloroacetic acid was added to stop the incorporation of the radio-labelled compound. The acid-insoluble fractions were collected by centrifugation; rinsed three times with 5% trichloroacetic acid; and dissolved in formic acid for radiometry. The 50% inhibitory concentration of the new anthracycline compound was calculated from the radiometric data of the acid-insoluble fractions of the control and test reaction mixtures.

[2] = tested on: L1210 leukemia cells, RNA synthesis; experiment: RNA synthesis inhibition in L1210 leukemia culture cells (14C-uridine incorporation); assay type: cell-based, mouse; conditions: for IC50: Mus musculus
Description: as §1

[3] = tested on: L1210 leukemia cells; experiment: Growth inhibition of L1210 leukemia culture cells in vitro; assay type: cell-based, mouse; conditions: for IC50: Mus musculus
Description: as §1

[4] = tested on: L1210 mouse leukemia; experiment: In vivo activity on L1210 mouse leukemia, prolongation of survival time; design: species or system mouse (CDF1 mice); conditions: for prolongation of survival time (T/C): i.p. every day for 10 days, CDF1 mice
Description: The therapeutic effect of trisarubicinol was examined by calculating the prolongation of the survival time of treated animals relative to untreated ones (receiving physiological saline). In practice, 1×10^5 mouse leukemia cells each were intraperitoneally transplanted into CDF1 mice and varied doses of trisarubicinol were intraperitoneally injected every day for 10 days from 24 hours after cell transplantation.

[5] = Acute toxicity; assay type: in vivo
[6] = tested on: various experimental tumors in animals; experiment: Antitumor activity on various experimental tumors in animals; conditions: in vivo

Row | SMILES | IC50 ([1]; L1210 culture cells, 15 min with compound, then 60 min with 14C-thymidine, read-out: 50% inhibitory concentration (IC50), DNA synthesis inhibition) [µg/mL] | IC50 ([2]; L1210 culture cells, 15 min with compound, then 60 min with 14C-uridine, read-out: 50% inhibitory concentration (IC50), RNA synthesis inhibition) [µg/mL] | IC50 ([3]; L1210 culture cells, 5×10^4 cells/ml, 37° C., 20% calf serum-supplemented RPMI 1640, read-out: 50% inhibitory concentration (IC50), cell growth inhibition) [µg/mL] | effect on survival time of leukemia cells-holding mice / therapeutic effect (in words) ([4]; L1210 mouse leukemia) | prolongation of survival time (T/C) ([4]; dose 0.63 (head prints "%")) [%] | prolongation of survival time (T/C) ([4]; dose 1.25 (head prints "%")) [%] | prolongation of survival time (T/C) ([4]; dose 2.5 (head prints "%")) [%] | prolongation of survival time (T/C) ([4]; dose 5.0 (head prints "%")) [%] | prolongation of survival time (T/C) ([4]; dose 7.5 (head prints "%")) [%] | prolongation of survival time (T/C) ([4]; dose 10 (head prints "%")) [%] | LD50 ([5]; in vivo, ip) [mg/kg] | toxicity (in words) ([5]; relative to carminomycin I, general statement) | IC50 ([1]; L1210, read-out: 50% inhibitory concentration (IC50), DNA synthesis inhibition) [µg/mL] | IC50 ([2]; L1210, read-out: 50% inhibitory concentration (IC50), RNA synthesis inhibition) [µg/mL] | RNA synthesis inhibition compared with carminomycin I (in words) ([2]; at very low concentrations, versus carminomycin I) | growth inhibition of L1210 cells (in words) ([3]; L1210 cultured cells / at low doses) | IC50 ([3]; L1210, read-out: 50% inhibitory concentration (IC50), cell growth inhibition) [µg/mL] | antitumor activity compared with carminomycin I (in words) ([3]; versus carminomycin I, L1210) | antitumor activity on various experimental tumors in animals (in words) [6]
1 | CC(=O)[C@]1(O)Cc2c(O)c3c(c(O)c2[C@@H](O[C@H]2C[C@H](N)[C@H](O)[C@H](C)O2)C1)C(=O)c1c(O)cccc1C3=O [carminomycin I, reference compound] | 0.2 (≈ 0.389 µM) | 0.29 (≈ 0.565 µM) | 0.01 (≈ 0.0195 µM) | – | – | – | – | – | – | – | – | – | – | – | – | – | – | – | –
2 | CC(O)C1(O)Cc2c(O)c3c(c(O)c2C(O[C@H]2C[C@H](N(C)C)[C@H](O[C@H]4C[C@H](O)[C@H](O[C@H]5CCC(=O)[C@H](C)O5)[C@H](C)O4)[C@H](C)O2)C1)C(=O)c1c(O)cccc1C3=O (stereo partly shown) [trisarubicinol] | – | – | – | marked prolonging effect on the survival time of leukemia cells-holding mice; also recorded: strong therapeutic effect on mouse leukemia (L1210) | 122 | 124 | 159 | 216 | 243 | 131 | 40 to 50 | less toxic than carminomycin I; also recorded: unique low toxicity | 0.38 (≈ 0.484 µM) | 0.06 (≈ 0.0764 µM) | better inhibition of RNA synthesis at very low concentrations | markedly inhibits the growth and nucleic acid synthesis in cultured cells of mouse leukemia (L1210); also recorded: significantly inhibits the growth of L1210 mouse leukemia cells at low doses | 0.01 (≈ 0.0127 µM) | same or better antitumor activity | excellent antitumor activity on various experimental tumors in animals
